Results published in ChEMBL document CHEMBL1201861, “Genomics of Drug Sensitity in Cancer screening data, Wellcome Trust Sanger Institute”.

Assays:
Assay in all cases: cells
[1] = tested on: COR-L88; type: functional, cell-based, Homo sapiens; details: Homo sapiens, COR-L88;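 note: growth inhibition of COR-L88 cells, read out with a cell viability assay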
Description: SANGER: Inhibition of human COR-L88 cell growth in a cell viability assay.

[2] = tested on: Calu-6; type: functional, cell-based, Homo sapiens; details: Homo sapiens, Calu-6;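 note: growth of human Calu-6 cells, read out by a cell viability assay, IC50 marking inhibition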
Description: SANGER: Inhibition of human Calu-6 cell growth in a cell viability assay.

[3] = tested on: DJM-1; type: functional, cell-based, Homo sapiens; details: Homo sapiens, DJM-1;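 note: growth inhibition of human DJM-1 cells, read out by a cell viability assay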
Description: SANGER: Inhibition of human DJM-1 cell growth in a cell viability assay.

[4] = tested on: ES1; type: functional, cell-based, Homo sapiens; details: Homo sapiens, ES1;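 note: growth inhibition of ES1 cells, read out with a cell viability assay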
Description: SANGER: Inhibition of human ES1 cell growth in a cell viability assay.

[5] = tested on: EW-13; type: functional, cell-based, Homo sapiens; details: Homo sapiens, EW-13; read-out: IC50;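 note: growth inhibition of EW-13 cells, read out with a cell viability assay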
Description: SANGER: Inhibition of human EW-13 cell growth in a cell viability assay.

[6] = tested on: EW-3; type: functional, cell-based, Homo sapiens; details: Homo sapiens, EW-3;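 note: cell viability assay read-out, IC50 reflects inhibition of growth of the EW-3 cells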
Description: SANGER: Inhibition of human EW-3 cell growth in a cell viability assay.

[7] = tested on: GCIY; type: functional, cell-based, Homo sapiens; details: Homo sapiens, GCIY;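 note: growth inhibition of the human GCIY cell line, read out by a cell viability assay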
Description: SANGER: Inhibition of human GCIY cell growth in a cell viability assay.

[8] = tested on: GI-ME-N; type: functional, cell-based, Homo sapiens; details: Homo sapiens, GI-ME-N;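 note: growth inhibition of human GI-ME-N cells, read out with a cell viability assay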
Description: SANGER: Inhibition of human GI-ME-N cell growth in a cell viability assay.

[9] = tested on: HCC1187; type: functional, cell-based, Homo sapiens; details: Homo sapiens, HCC1187;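 note: growth inhibition of HCC1187 cells, read out with a cell viability assay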
Description: SANGER: Inhibition of human HCC1187 cell growth in a cell viability assay.

[10] = tested on: HCE-4; type: functional, cell-based; details: Homo sapiens;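 note: cell viability assay measuring inhibition of growth in the human HCE-4 cell line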
Description: SANGER: Inhibition of human HCE-4 cell growth in a cell viability assay.

[11] = tested on: HEL; type: functional, cell-based, Homo sapiens; details: Homo sapiens, HEL;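 note: growth inhibition of HEL cells, read out with a cell viability assay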
Description: SANGER: Inhibition of human HEL cell growth in a cell viability assay.

[12] = tested on: IA-LM; type: functional, cell-based; details: Homo sapiens;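 note: cell viability assay measuring growth inhibition of human IA-LM cells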
Description: SANGER: Inhibition of human IA-LM cell growth in a cell viability assay.

[13] = tested on: IST-SL1; type: functional, cell-based, Homo sapiens; details: Homo sapiens, IST-SL1;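 note: growth inhibition of human IST-SL1 cells, read out with a cell viability assay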
Description: SANGER: Inhibition of human IST-SL1 cell growth in a cell viability assay.

[14] = tested on: K562; type: functional, cell-based, Homo sapiens; details: Homo sapiens, K562
Description: SANGER: Inhibition of human K-562 cell growth in a cell viability assay.

[15] = tested on: KALS-1; type: functional, cell-based, Homo sapiens; details: Homo sapiens, KALS-1; read-out: IC50;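 note: growth inhibition of KALS-1 cells, determined with a cell viability assay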
Description: SANGER: Inhibition of human KALS-1 cell growth in a cell viability assay.

[16] = tested on: LOX IMVI; type: functional, cell-based, Homo sapiens; details: Homo sapiens, LOX IMVI
Description: SANGER: Inhibition of human LOXIMVI cell growth in a cell viability assay.

[17] = tested on: MHH-NB-11; type: functional, cell-based, Homo sapiens; details: Homo sapiens, MHH-NB-11;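 note: growth inhibition of human MHH-NB-11 cells, read out by a cell viability assay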
Description: SANGER: Inhibition of human MHH-NB-11 cell growth in a cell viability assay.

[18] = tested on: MN-60; type: functional, cell-based, Homo sapiens; details: Homo sapiens, MN-60;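 note: growth inhibition of the MN-60 cell line, determined with a cell viability assay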
Description: SANGER: Inhibition of human MN-60 cell growth in a cell viability assay.

[19] = tested on: MOLT-4; type: functional, cell-based, Homo sapiens; details: Homo sapiens, MOLT-4;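 note: growth inhibition of MOLT-4 cells, determined with a cell viability readout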
Description: SANGER: Inhibition of human MOLT-4 cell growth in a cell viability assay.

[20] = tested on: MPP-89; type: functional, cell-based, Homo sapiens; details: Homo sapiens, MPP-89;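 note: growth inhibition of human MPP-89 cells, read out with a cell viability assay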
Description: SANGER: Inhibition of human MPP-89 cell growth in a cell viability assay.

[21] = tested on: MV4-11; type: functional, cell-based, Homo sapiens, MV-4-11; details: Homo sapiens, MV4-11;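 note: cell viability readout measuring growth inhibition of human MV-4-11 cells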
Description: SANGER: Inhibition of human MV-4-11 cell growth in a cell viability assay.

[22] = tested on: NB10; type: functional, cell-based, Homo sapiens; details: Homo sapiens, NB10;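 note: growth inhibition of NB10 cells, read out by a cell viability assay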
Description: SANGER: Inhibition of human NB10 cell growth in a cell viability assay.

[23] = tested on: NB5; type: functional, cell-based, Homo sapiens; details: Homo sapiens, NB5;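 note: growth inhibition of NB5 cells, read out as cell viability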
Description: SANGER: Inhibition of human NB5 cell growth in a cell viability assay.

[24] = tested on: NCI-H1092; type: functional, cell-based, Homo sapiens; details: Homo sapiens, NCI-H1092;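 note: cell growth inhibition measured with a cell viability assay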
Description: SANGER: Inhibition of human NCI-H1092 cell growth in a cell viability assay.

[25] = tested on: NCI-H1355; type: functional, cell-based, Homo sapiens; details: Homo sapiens, NCI-H1355;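 note: growth inhibition of human NCI-H1355 cells, read out by a cell viability assay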
Description: SANGER: Inhibition of human NCI-H1355 cell growth in a cell viability assay.

[26] = tested on: NCI-H1395; type: functional, cell-based, Homo sapiens; details: Homo sapiens, NCI-H1395;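 note: cell viability assay read-out quantifying reduced proliferation of human NCI-H1395 cells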
Description: SANGER: Inhibition of human NCI-H1395 cell growth in a cell viability assay.

[27] = tested on: NCI-H1648; type: functional, cell-based, Homo sapiens; details: Homo sapiens, NCI-H1648;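 note: cell viability assay measuring inhibition of NCI-H1648 cell growth, from the Sanger screening data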
Description: SANGER: Inhibition of human NCI-H1648 cell growth in a cell viability assay.

[28] = tested on: NCI-H1770; type: functional, cell-based, Homo sapiens; details: Homo sapiens, NCI-H1770;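 note: growth inhibition of NCI-H1770 cells determined with a viability readout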
Description: SANGER: Inhibition of human NCI-H1770 cell growth in a cell viability assay.

[29] = tested on: NCI-H2126; type: functional, cell-based, Homo sapiens; details: Homo sapiens, NCI-H2126;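 note: growth inhibition of the cancer cell line, determined with a cell viability readout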
Description: SANGER: Inhibition of human NCI-H2126 cell growth in a cell viability assay.

[30] = tested on: NCI-H226; type: functional, cell-based, Homo sapiens; details: Homo sapiens, NCI-H226;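 note: cell viability read-out used to gauge growth inhibition of the cells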
Description: SANGER: Inhibition of human NCI-H226 cell growth in a cell viability assay.

[31] = tested on: NCI-H446; type: functional, cell-based, Homo sapiens; details: Homo sapiens, NCI-H446;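 note: growth inhibition of NCI-H446 cells determined by a cell viability assay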
Description: SANGER: Inhibition of human NCI-H446 cell growth in a cell viability assay.

[32] = tested on: NCI-H720; type: functional, cell-based, Homo sapiens; details: Homo sapiens, NCI-H720;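 note: growth inhibition of human NCI-H720 cells determined by a cell viability assay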
Description: SANGER: Inhibition of human NCI-H720 cell growth in a cell viability assay.

[33] = tested on: OMC-1; type: functional, cell-based, Homo sapiens; details: Homo sapiens, OMC-1;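 note: growth inhibition of the OMC-1 cell line, measured by a cell viability assay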
Description: SANGER: Inhibition of human OMC-1 cell growth in a cell viability assay.

[34] = tested on: P30-OHK; type: functional, cell-based, Homo sapiens; details: Homo sapiens, P30-OHK;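 note: growth inhibition of the P30-OHK cell line, read out with a cell viability assay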
Description: SANGER: Inhibition of human P30-OHK cell growth in a cell viability assay.

[35] = tested on: RXF 393; type: functional, cell-based, Homo sapiens; details: Homo sapiens, RXF 393;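 note: growth inhibition of human RXF 393 cells, read out with a cell viability assay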
Description: SANGER: Inhibition of human RXF393 cell growth in a cell viability assay.

[36] = tested on: SK-LMS-1; type: functional, cell-based, Homo sapiens; details: Homo sapiens, SK-LMS-1;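 note: growth inhibition of human SK-LMS-1 cells, read out with a cell viability assay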
Description: SANGER: Inhibition of human SK-LMS-1 cell growth in a cell viability assay.

[37] = tested on: SK-MEL-2; type: functional, cell-based, Homo sapiens; details: Homo sapiens, SK-MEL-2;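 note: growth inhibition of human SK-MEL-2 cells measured with a cell viability assay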
Description: SANGER: Inhibition of human SK-MEL-2 cell growth in a cell viability assay.

[38] = tested on: SK-N-DZ; type: functional, cell-based, Homo sapiens; details: Homo sapiens, SK-N-DZ; read-out: IC50;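 note: growth inhibition of the cancer cell line, read out through a viability assay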
Description: SANGER: Inhibition of human SK-N-DZ cell growth in a cell viability assay.

[39] = tested on: SW 954; type: functional, cell-based, Homo sapiens; details: Homo sapiens, SW 954;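 note: growth inhibition of SW954 human cancer cells, read out as cell viability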
Description: SANGER: Inhibition of human SW954 cell growth in a cell viability assay.

[40] = tested on: A253 cell line; type: functional, cell-based, Homo sapiens; details: Homo sapiens, A253;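 note: growth inhibition of A253 cells, read out with a cell viability assay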
Description: SANGER: Inhibition of human A253 cell growth in a cell viability assay.

[41] = tested on: ACN; type: functional, cell-based, Homo sapiens; details: Homo sapiens, ACN;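 note: growth inhibition of the human ACN cell line, read out via cell viability testing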
Description: SANGER: Inhibition of human ACN cell growth in a cell viability assay.

[42] = tested on: ALL-PO; type: functional, cell-based, Homo sapiens; details: Homo sapiens, ALL-PO;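 note: growth inhibition of ALL-PO cells, read out by a cell viability assay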
Description: SANGER: Inhibition of human ALL-PO cell growth in a cell viability assay.

[43] = tested on: BE-13; type: functional, cell-based, Homo sapiens; details: Homo sapiens, BE-13;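 note: growth inhibition of human BE-13 cells, measured with a cell viability assay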
Description: SANGER: Inhibition of human BE-13 cell growth in a cell viability assay.

[44] = tested on: BT-474; type: functional, cell-based, Homo sapiens; details: Homo sapiens, BT-474
Description: SANGER: Inhibition of human BT-474 cell growth in a cell viability assay.

[45] = tested on: TE-12; type: functional, cell-based, Homo sapiens; details: Homo sapiens, TE-12;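 note: growth inhibition of TE-12 cells, read out by a cell viability assay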
Description: SANGER: Inhibition of human TE-12 cell growth in a cell viability assay.

[46] = tested on: TE-8; type: functional, cell-based, Homo sapiens; details: Homo sapiens, TE-8;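 note: growth inhibition of TE-8 cells, measured with a cell viability readout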
Description: SANGER: Inhibition of human TE-8 cell growth in a cell viability assay.

[47] = tested on: U-266; type: functional, cell-based, Homo sapiens; details: Homo sapiens, U-266
Description: SANGER: Inhibition of human U-266 cell growth in a cell viability assay.

[48] = tested on: VA-ES-BJ; type: functional, cell-based, Homo sapiens; details: Homo sapiens, VA-ES-BJ;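 note: growth inhibition of the VA-ES-BJ cell line, read out by a cell viability assay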
Description: SANGER: Inhibition of human VA-ES-BJ cell growth in a cell viability assay.

[49] = tested on: CGTH-W-1; type: functional, cell-based, Homo sapiens; details: Homo sapiens, CGTH-W-1;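 note: growth inhibition of human CGTH-W-1 cells measured by cell viability assay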
Description: SANGER: Inhibition of human CGTH-W-1 cell growth in a cell viability assay.

In the case of `COc1ccc(-c2cc3nccn3c(Nc3ncccc3C(N)=O)n2)cc1OC`, the IC50 [1] is reported as > 8000 nM, the IC50 [2] is reported as 6870 nM and the IC50 [3] is reported as > 8000 nM. The IC50 [4] was 2380 nM, the IC50 [5] was 1470 nM and the IC50 [6] was 4930 nM. The IC50 [7] was > 8000 nM, the IC50 [8] was > 8000 nM and the IC50 [9] was > 8000 nM. For the same compound, the IC50 [10] was 5020 nM, the IC50 [11] was 1350 nM and the IC50 [12] was 2710 nM. The IC50 [13] was 7980 nM, the IC50 [14] was > 8000 nM and the IC50 [15] was > 8000 nM. The IC50 [16] was 2660 nM, the IC50 [17] was > 8000 nM and the IC50 [18] was > 8000 nM. For the same compound, the IC50 [19] was 5810 nM, the IC50 [20] was 1670 nM and the IC50 [21] was < 31.2 nM. For the same compound, the IC50 [22] was 5300 nM, the IC50 [23] was > 8000 nM and the IC50 [24] was > 8000 nM. The IC50 [25] was 3490 nM, the IC50 [26] was > 8000 nM and the IC50 [27] was > 8000 nM. The IC50 [28] was 2610 nM, the IC50 [29] was > 8000 nM and the IC50 [30] was 4030 nM. For the same compound, the IC50 [31] was 4990 nM, the IC50 [32] was > 8000 nM and the IC50 [33] was > 8000 nM. For the same compound, the IC50 [34] was 427 nM, the IC50 [35] was 6810 nM and the IC50 [36] was > 8000 nM. For the same compound, the IC50 [37] was 1890 nM, the IC50 [38] was > 8000 nM and the IC50 [39] was > 8000 nM. For the same compound, the IC50 [40] was > 8000 nM, the IC50 [41] was > 8000 nM and the IC50 [42] was 557 nM. For the same compound, the IC50 [43] was 2700 nM, the IC50 [44] was > 8000 nM and the IC50 [45] was 531 nM. For the same compound, the IC50 [46] was 2430 nM, the IC50 [47] was 4710 nM and the IC50 [48] was > 8000 nM. For the same compound, the IC50 [49] was 3370 nM.
`COC(=O)[C@H](CCSC)NC(=O)c1ccc(NC[C@@H](N)CS)cc1-c1ccccc1` was tested, and the IC50 [1] was > 1020 nM, the IC50 [2] was > 1020 nM and the IC50 [3] was > 1020 nM. For the same compound, the IC50 [4] was > 1020 nM, the IC50 [5] was > 1020 nM and the IC50 [6] was > 1020 nM. For the same compound, the IC50 [7] was > 1020 nM, the IC50 [8] was > 1020 nM and the IC50 [9] was > 1020 nM. For the same compound, the IC50 [10] was > 1020 nM, the IC50 [11] was > 1020 nM and the IC50 [12] was 955 nM. For the same compound, the IC50 [13] was > 1020 nM, the IC50 [14] was > 1020 nM and the IC50 [15] was > 1020 nM. For the same compound, the IC50 [16] was > 1020 nM, the IC50 [17] was > 1020 nM and the IC50 [18] was > 1020 nM. For the same compound, the IC50 [19] was > 1020 nM, the IC50 [20] was > 1020 nM and the IC50 [21] was > 1020 nM. The IC50 [22] was > 1020 nM, the IC50 [23] was > 1020 nM and the IC50 [24] was > 1020 nM. The IC50 [25] was > 1020 nM, the IC50 [26] was > 1020 nM and the IC50 [27] was > 1020 nM. The IC50 [28] was > 1020 nM, the IC50 [29] was > 1020 nM and the IC50 [30] was > 1020 nM. For the same compound, the IC50 [31] was > 1020 nM, the IC50 [32] was > 1020 nM and the IC50 [33] was > 1020 nM. The IC50 [34] was > 1020 nM, the IC50 [35] was > 1020 nM and the IC50 [36] was > 1020 nM. For the same compound, the IC50 [37] was > 1020 nM, the IC50 [38] was > 1020 nM and the IC50 [39] was > 1020 nM. For the same compound, the IC50 [40] was > 1020 nM, the IC50 [41] was > 1020 nM and the IC50 [42] was > 1020 nM. For the same compound, the IC50 [43] was > 1020 nM, the IC50 [44] was > 1020 nM and the IC50 [45] was > 1020 nM. The IC50 [46] was > 1020 nM, the IC50 [47] was > 1020 nM and the IC50 [48] was > 1020 nM. For the same compound, the IC50 [49] was > 1020 nM.
